Test results as given in PubChem BioAssay AID2060602 (Molecular Pharmacology Branch, DTP, NCI, 2025).

Tested on: 648629-189-R-J1-PDC complex spheroids viability
Experiment: Anticancer human tumor 648629-189-R-J1-PDC patient-derived bladder carcinoma cell line growth inhibition [CLK]
Settings: for IC50: curve of first compound; for viability, T/C: stronger effect = lower value
Summary of the method: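 Multi-cell-type spheroids combined patient-derived tumor cells with HUVEC endothelial cells and human mesenchymal stem cells. Paired agents were dosed in half-log steps down from about clinical Cmax, or from 10 microM where Cmax was unknown.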
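For viability, T/C in this document: drug exposure lasted seven days before viability readout; 100% = DMSO vehicle control wells.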

NC(=O)C(=Cn1cnc(-c2cc(C(F)(F)F)cc(C(F)(F)F)c2)n1)c1cncnc1 + CN1CCN(c2cc(C(=O)Nc3cc4cc(-c5cnn(C)c5)ccc4cn3)ccn2)CC1
IC50 (second compound 0.0316 µM): 54.4 nM | IC50 (second compound 0.1 µM): 53.3 nM | IC50 (second compound 0.316 µM): < 9.49 nM | IC50 (second compound 1 µM): < 9.49 nM | IC50 (second compound 3.16 µM): < 9.49 nM | IC50 (second compound 10 µM): < 9.49 nM | viability, T/C (second compound 0.0316 µM, first compound 0.00949 µM): 113% | viability, T/C (second compound 0.0316 µM, first compound 0.03 µM): 88.2% | viability, T/C (second compound 0.0316 µM, first compound 0.0949 µM): 14.3% | viability, T/C (second compound 0.0316 µM, first compound 0.3 µM): 2.66% | viability, T/C (second compound 0.0316 µM, first compound 0.949 µM): 1.8% | viability, T/C (second compound 0.0316 µM, first compound 3 µM): 1.61% | viability, T/C (second compound 0.1 µM, first compound 0.00949 µM): 93.7% | viability, T/C (second compound 0.1 µM, first compound 0.03 µM): 87.7% | viability, T/C (second compound 0.1 µM, first compound 0.0949 µM): 12.2% | viability, T/C (second compound 0.1 µM, first compound 0.3 µM): 2.12% | viability, T/C (second compound 0.1 µM, first compound 0.949 µM): 0.68% | viability, T/C (second compound 0.1 µM, first compound 3 µM): 0.92% | viability, T/C (second compound 0.316 µM, first compound 0.00949 µM): 14.6% | viability, T/C (second compound 0.316 µM, first compound 0.03 µM): 11.7% | viability, T/C (second compound 0.316 µM, first compound 0.0949 µM): 3% | viability, T/C (second compound 0.316 µM, first compound 0.3 µM): 0.3% | viability, T/C (second compound 0.316 µM, first compound 0.949 µM): 0.08% | viability, T/C (second compound 0.316 µM, first compound 3 µM): 1.52% | viability, T/C (second compound 1 µM, first compound 0.00949 µM): 0.1% | viability, T/C (second compound 1 µM, first compound 0.03 µM): 0.12% | viability, T/C (second compound 1 µM, first compound 0.0949 µM): 0.12% | viability, T/C (second compound 1 µM, first compound 0.3 µM): 0.07% | viability, T/C (second compound 1 µM, first compound 0.949 µM): 0.06% | viability, T/C (second compound 1 µM, first compound 3 µM): 0.63% | viability, T/C (second compound 3.16 µM, first compound 0.00949 µM): 0.07% | viability, T/C (second compound 3.16 µM, first compound 0.03 µM): 0.1% | viability, T/C (second compound 3.16 µM, first compound 0.0949 µM): 0.12% | viability, T/C (second compound 3.16 µM, first compound 0.3 µM): 0.12% | viability, T/C (second compound 3.16 µM, first compound 0.949 µM): 0.79% | viability, T/C (second compound 3.16 µM, first compound 3 µM): 0.75% | viability, T/C (second compound 10 µM, first compound 0.00949 µM): 0.05% | viability, T/C (second compound 10 µM, first compound 0.03 µM): 0.08% | viability, T/C (second compound 10 µM, first compound 0.0949 µM): 0.17% | viability, T/C (second compound 10 µM, first compound 0.3 µM): 0.2% | viability, T/C (second compound 10 µM, first compound 0.949 µM): 1.48% | viability, T/C (second compound 10 µM, first compound 3 µM): 0.19%

Nc1ccccc1NC(=O)c1ccc(CNC(=O)OCc2cccnc2)cc1 + CN1CCN(c2cc(C(=O)Nc3cc4cc(-c5cnn(C)c5)ccc4cn3)ccn2)CC1
IC50 (second compound 0.0316 µM): 1870 nM | IC50 (second compound 0.1 µM): 1840 nM | IC50 (second compound 0.316 µM): < 31.6 nM | IC50 (second compound 1 µM): < 31.6 nM | IC50 (second compound 3.16 µM): < 31.6 nM | IC50 (second compound 10 µM): < 31.6 nM | viability, T/C (second compound 0.0316 µM, first compound 0.0316 µM): 124% | viability, T/C (second compound 0.0316 µM, first compound 0.1 µM): 125% | viability, T/C (second compound 0.0316 µM, first compound 0.316 µM): 96.9% | viability, T/C (second compound 0.0316 µM, first compound 1 µM): 72.2% | viability, T/C (second compound 0.0316 µM, first compound 3.16 µM): 32.5% | viability, T/C (second compound 0.0316 µM, first compound 10 µM): 1.56% | viability, T/C (second compound 0.1 µM, first compound 0.0316 µM): 107% | viability, T/C (second compound 0.1 µM, first compound 0.1 µM): 109% | viability, T/C (second compound 0.1 µM, first compound 0.316 µM): 96.9% | viability, T/C (second compound 0.1 µM, first compound 1 µM): 71.7% | viability, T/C (second compound 0.1 µM, first compound 3.16 µM): 31% | viability, T/C (second compound 0.1 µM, first compound 10 µM): 1.87% | viability, T/C (second compound 0.316 µM, first compound 0.0316 µM): 37.4% | viability, T/C (second compound 0.316 µM, first compound 0.1 µM): 46.7% | viability, T/C (second compound 0.316 µM, first compound 0.316 µM): 39.1% | viability, T/C (second compound 0.316 µM, first compound 1 µM): 33.8% | viability, T/C (second compound 0.316 µM, first compound 3.16 µM): 7.95% | viability, T/C (second compound 0.316 µM, first compound 10 µM): 0.08% | viability, T/C (second compound 1 µM, first compound 0.0316 µM): 0.41% | viability, T/C (second compound 1 µM, first compound 0.1 µM): 0.4% | viability, T/C (second compound 1 µM, first compound 0.316 µM): 0.31% | viability, T/C (second compound 1 µM, first compound 1 µM): 0.07% | viability, T/C (second compound 1 µM, first compound 3.16 µM): 0.1% | viability, T/C (second compound 1 µM, first compound 10 µM): 0.53% | viability, T/C (second compound 3.16 µM, first compound 0.0316 µM): 0.08% | viability, T/C (second compound 3.16 µM, first compound 0.1 µM): 1.97% | viability, T/C (second compound 3.16 µM, first compound 0.316 µM): 0.1% | viability, T/C (second compound 3.16 µM, first compound 1 µM): 0.07% | viability, T/C (second compound 3.16 µM, first compound 3.16 µM): 0.07% | viability, T/C (second compound 3.16 µM, first compound 10 µM): 2.02% | viability, T/C (second compound 10 µM, first compound 0.0316 µM): 0.04% | viability, T/C (second compound 10 µM, first compound 0.1 µM): 0.11% | viability, T/C (second compound 10 µM, first compound 0.316 µM): 0.12% | viability, T/C (second compound 10 µM, first compound 1 µM): 0.14% | viability, T/C (second compound 10 µM, first compound 3.16 µM): 2.26% | viability, T/C (second compound 10 µM, first compound 10 µM): 0.17%
